Experimental data taken from patent US20140100184A1, “SELECTIVE INHIBITORS OF HISTONE […] DOT1L” (BAYLOR COLLEGE OF MEDICINE, priority 2012, published 2014).
Structures can show the parent of a compound that is named as a salt. Where two headings read alike, the source gives them in different places.

Experiments:
[1] = target: T1, G9a (Mus musculus, UniProt Q9Z148); test: Methyltransferase inhibition assay, G9a
T1 sequence (Q9Z148 1-1263): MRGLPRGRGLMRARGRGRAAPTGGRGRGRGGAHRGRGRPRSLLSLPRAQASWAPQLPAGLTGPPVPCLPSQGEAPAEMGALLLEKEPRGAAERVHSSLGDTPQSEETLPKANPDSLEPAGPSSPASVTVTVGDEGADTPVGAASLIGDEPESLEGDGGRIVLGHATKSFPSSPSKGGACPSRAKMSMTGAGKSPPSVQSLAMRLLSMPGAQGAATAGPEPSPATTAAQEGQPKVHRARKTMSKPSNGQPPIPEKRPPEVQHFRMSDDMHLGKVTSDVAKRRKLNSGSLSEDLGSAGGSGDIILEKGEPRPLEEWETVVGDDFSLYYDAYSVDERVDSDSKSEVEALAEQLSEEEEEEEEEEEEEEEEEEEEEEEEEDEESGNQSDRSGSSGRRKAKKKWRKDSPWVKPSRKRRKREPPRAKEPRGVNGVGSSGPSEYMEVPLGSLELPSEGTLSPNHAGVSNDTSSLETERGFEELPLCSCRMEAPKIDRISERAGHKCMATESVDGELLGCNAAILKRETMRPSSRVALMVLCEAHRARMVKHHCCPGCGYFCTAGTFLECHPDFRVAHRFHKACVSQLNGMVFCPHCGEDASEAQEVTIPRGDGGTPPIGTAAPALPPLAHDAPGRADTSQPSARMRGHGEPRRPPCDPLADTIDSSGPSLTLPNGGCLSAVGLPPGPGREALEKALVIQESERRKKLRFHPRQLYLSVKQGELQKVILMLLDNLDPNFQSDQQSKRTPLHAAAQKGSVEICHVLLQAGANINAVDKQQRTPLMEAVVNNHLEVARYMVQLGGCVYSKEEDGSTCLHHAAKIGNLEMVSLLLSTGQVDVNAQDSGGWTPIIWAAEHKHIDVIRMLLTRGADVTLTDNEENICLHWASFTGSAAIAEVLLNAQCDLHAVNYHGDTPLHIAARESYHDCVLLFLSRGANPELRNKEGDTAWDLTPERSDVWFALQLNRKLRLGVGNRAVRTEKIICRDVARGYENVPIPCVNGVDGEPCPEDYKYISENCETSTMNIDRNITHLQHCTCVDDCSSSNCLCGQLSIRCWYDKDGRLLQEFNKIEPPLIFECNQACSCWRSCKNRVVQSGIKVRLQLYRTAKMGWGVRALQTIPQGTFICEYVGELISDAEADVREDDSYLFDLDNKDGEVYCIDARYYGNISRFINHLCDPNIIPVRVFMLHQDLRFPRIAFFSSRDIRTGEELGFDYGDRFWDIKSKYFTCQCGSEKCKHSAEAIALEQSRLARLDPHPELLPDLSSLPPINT

[2] = target: T2, CARM1 (Homo sapiens, UniProt Q86X55); test: biochemical; design: GST (from pGEX-KG vector) (N); made in house; host or cells: E. coli (as for hDOT1L); plasmid pGEX-KG-CARM1 from Dr. Qin Feng
T2 sequence (Q86X55 1-608): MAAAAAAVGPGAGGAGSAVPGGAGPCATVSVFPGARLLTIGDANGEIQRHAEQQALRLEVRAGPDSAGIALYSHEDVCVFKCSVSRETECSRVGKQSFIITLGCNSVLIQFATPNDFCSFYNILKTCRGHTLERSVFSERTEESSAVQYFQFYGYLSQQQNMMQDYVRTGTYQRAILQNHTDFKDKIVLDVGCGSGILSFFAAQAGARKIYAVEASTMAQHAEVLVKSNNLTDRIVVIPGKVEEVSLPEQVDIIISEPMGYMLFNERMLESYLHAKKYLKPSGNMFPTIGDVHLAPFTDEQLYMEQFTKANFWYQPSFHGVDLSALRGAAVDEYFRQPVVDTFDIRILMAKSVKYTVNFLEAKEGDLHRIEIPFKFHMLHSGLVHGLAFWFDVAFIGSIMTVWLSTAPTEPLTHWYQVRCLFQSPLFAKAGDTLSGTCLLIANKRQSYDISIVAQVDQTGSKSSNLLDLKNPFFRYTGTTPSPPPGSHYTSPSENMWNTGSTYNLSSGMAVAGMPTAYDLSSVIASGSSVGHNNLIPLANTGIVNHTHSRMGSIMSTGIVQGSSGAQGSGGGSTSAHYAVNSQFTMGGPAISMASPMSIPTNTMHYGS

[3] = target: T3, SUV39H1 (Homo sapiens, UniProt O43463); test: biochemical; design: purchased BPS Biosciences (San Diego, Calif.)
T3 sequence (O43463 1-412): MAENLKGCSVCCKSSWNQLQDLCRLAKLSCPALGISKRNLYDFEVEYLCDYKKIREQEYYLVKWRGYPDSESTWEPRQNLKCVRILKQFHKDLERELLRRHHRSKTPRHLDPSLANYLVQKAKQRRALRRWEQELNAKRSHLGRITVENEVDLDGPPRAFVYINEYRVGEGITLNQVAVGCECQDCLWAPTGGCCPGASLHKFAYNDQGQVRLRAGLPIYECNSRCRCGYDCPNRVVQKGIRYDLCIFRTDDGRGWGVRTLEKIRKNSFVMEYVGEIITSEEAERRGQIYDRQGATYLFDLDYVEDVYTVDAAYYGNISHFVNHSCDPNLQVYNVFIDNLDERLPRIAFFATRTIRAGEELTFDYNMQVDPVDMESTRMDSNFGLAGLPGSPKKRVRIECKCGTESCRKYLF

[4] = system: CARM1, PRMT1, G9a and SUV39H1; test: Inhibition of other methyltransferases, summarised over the panel; details: for activity against other methyltransferases: in words
[5] = target: T4, PRMT1 (Homo sapiens, UniProt Q99873); test: Methyltransferase inhibition assay, PRMT1; format: biochemical; design: purchased BPS Biosciences (San Diego, Calif.)
[6] = target: T2, CARM1; details: read-out: Km value of SAM for CARM1
[7] = target: T5, DOT1L (Homo sapiens, UniProt Q8TEK3); test: Determination of Km values of SAM and substrate, DOT1L; format: biochemical; details: 30° C., 10 min, pH=8.0
T5 construct: Human DOT1 L(1-472) was expressed and purified as described in the literature; GST (N, cleaved yes); made in house; host or cells: E. coli BL21-CodonPlus (Agilent), plasmid pGEX-KG-hDOT1L(1-472)

[8] = target: T1, G9a; details: read-out: Km value of SAM for G9a
[9] = target: T3, SUV39H1; details: read-out: Km value of SAM for SUV39H1
[10] = target: T4, PRMT1; details: read-out: Km value of SAM for PRMT1; from the literature; cited from earlier work
[11] = target: T5, DOT1L; details: literature values; read-out: Km value for DOT1L, recent publication; cited from earlier work

T4 sequence (Q99873 whole entry): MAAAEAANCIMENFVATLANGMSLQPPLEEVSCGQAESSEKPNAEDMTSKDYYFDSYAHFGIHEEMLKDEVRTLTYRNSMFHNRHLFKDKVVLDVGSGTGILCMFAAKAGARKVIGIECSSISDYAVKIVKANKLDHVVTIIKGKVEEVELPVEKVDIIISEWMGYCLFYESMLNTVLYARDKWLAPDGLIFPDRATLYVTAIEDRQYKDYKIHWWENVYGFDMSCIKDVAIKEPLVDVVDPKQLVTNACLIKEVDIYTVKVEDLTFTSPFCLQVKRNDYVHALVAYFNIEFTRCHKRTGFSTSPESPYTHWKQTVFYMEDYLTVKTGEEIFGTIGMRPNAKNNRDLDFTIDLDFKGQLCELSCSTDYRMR
T5 sequence (Q8TEK3 1-472): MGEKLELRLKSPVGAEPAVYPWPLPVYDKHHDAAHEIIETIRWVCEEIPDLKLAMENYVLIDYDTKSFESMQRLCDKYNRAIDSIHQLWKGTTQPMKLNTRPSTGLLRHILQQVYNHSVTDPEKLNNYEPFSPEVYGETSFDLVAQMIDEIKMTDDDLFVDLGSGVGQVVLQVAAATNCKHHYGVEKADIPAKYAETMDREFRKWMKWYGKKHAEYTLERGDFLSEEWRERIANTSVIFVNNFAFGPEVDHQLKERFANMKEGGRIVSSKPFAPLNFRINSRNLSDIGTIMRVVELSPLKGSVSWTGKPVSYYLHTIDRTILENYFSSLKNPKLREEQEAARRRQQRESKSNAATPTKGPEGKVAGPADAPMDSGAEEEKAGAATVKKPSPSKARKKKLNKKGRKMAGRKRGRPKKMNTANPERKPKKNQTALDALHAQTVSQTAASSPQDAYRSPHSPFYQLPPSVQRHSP

Structure (SMILES)	Ki [1]	IC50 [2]	IC50 [3]	IC50 [1]	other results
CNc1ncnc2c1ncn2[C@@H]1O[C@H](CSCC[C@H](N)C(=O)O)[C@@H](O)[C@H]1O [Compound 1, S-(N^6-Methyl-adenosyl)-L-homocysteine]	> 100 µM	–	–	–	–
N[C@@H](CCSC[C@H]1O[C@@H](n2cnc3c(NCc4ccccc4)ncnc32)[C@H](O)[C@@H]1O)C(=O)O [Compound 2, S-(N^6-Benzyl-adenosyl)-L-homocysteine]	> 100 µM	–	–	–	Ki [2]: 18 µM; Ki [3]: > 100 µM; activity on G9a [1]: inactive
Nc1ncnc2c1ncn2[C@@H]1O[C@H](CN(CCI)CC[C@H](N)C(=O)O)C(O)[C@@H]1O (stereo partly drawn) [Compound 3, N^γ-(5′-Adenosyl)-N^γ-(2-iodoethyl)-(S)-2,4-diaminobutyric acid hydrochloride]	–	46.4 µM	> 100 µM	> 100 µM	–
Nc1ncnc2c1ncn2[C@@H]1O[C@H](CN(CCI)CCC[C@H](N)C(=O)O)C(O)[C@@H]1O (stereo partly drawn) [Compound 4, N^δ-(5′-Adenosyl)-N^δ-(2-iodoethyl)-(S)-2,5-diaminopentanoic-acid hydrochloride]	–	1.1 µM	> 100 µM	1.8 µM	IC50 ([4]; read-out: IC50 values on other methyltransferases, span over the four enzymes): ≥ 1.1 µM
CNc1ncnc2c1ncn2[C@@H]1O[C@H](CN(CCI)CCC[C@H](N)C(=O)O)C(O)[C@@H]1O (stereo partly drawn) [Compound 5, N^δ-[5′-(N^6-Methyl-adenosyl)]-N^δ-(2-iodoethyl)-(S)-2,5-diaminopentanoic acid hydrochloride]	–	> 100 µM	> 100 µM	> 100 µM	activity against other methyltransferases [4]: essentially inactive
N[C@@H](CCCN(CCI)C[C@H]1O[C@@H](n2cnc3c(NCc4ccccc4)ncnc32)[C@@H](O)C1O)C(=O)O (stereo partly drawn) [Compound 6, N^δ-[5′-(N^6-Benzyl-adenosyl)]-N^δ-(2-iodoethyl)-(S)-2,5-diaminopentanoic acid hydrochloride]	–	> 100 µM	> 100 µM	> 100 µM	activity against other methyltransferases [4]: essentially inactive; IC50 [5]: > 100 µM
Nc1ncnc2c1ncn2[C@@H]1O[C@H](CSCC[C@H](N)C(=O)O)[C@@H](O)[C@H]1O [SAH, S-(5′-adenosyl)-L-homocysteine, reference compound]	0.57 µM	–	–	–	–
C[S+](CC[C@H](N)C(=O)O)C[C@H]1O[C@@H](n2cnc3c(N)ncnc32)[C@H](O)[C@@H]1O (stereo partly drawn) [SAM, S-(5′-adenosyl)-L-methionine]	–	–	–	–	Km [6]: 1.6 µM; Km [7]: 0.76 µM; Km [8]: 14.1 µM; Km [9]: 27.9 µM; Km [10]: 6 µM; Km [11]: 0.65 µM
